# Measured values from publication PMC10709327, “A class of secreted mammalian peptides with potential to expand cell-cell communication” (Nature Communications, 2023).
# Where a SMILES comes first, the peptide text is derived from it. Where no end group is shown, it is not given here. [ ]: non-standard residue; d: D form. pGlu = O=C1CC[C@@H](C(=O)O)N1
# Columns and labels:
# [1] = biological target: T1, human TACR3 (Homo sapiens, UniProt P29371); assay: TACR agonist assay, PathHunter beta-arrestin recruitment (TACR3); assay type: cell-based; details: read-out: maximal activation at TACR3, higher compared to Substance P(6-11)
# T1 construct: host or cells: PathHunter beta-arrestin CHO-K1 cells
# T1 sequence (P29371 1-465): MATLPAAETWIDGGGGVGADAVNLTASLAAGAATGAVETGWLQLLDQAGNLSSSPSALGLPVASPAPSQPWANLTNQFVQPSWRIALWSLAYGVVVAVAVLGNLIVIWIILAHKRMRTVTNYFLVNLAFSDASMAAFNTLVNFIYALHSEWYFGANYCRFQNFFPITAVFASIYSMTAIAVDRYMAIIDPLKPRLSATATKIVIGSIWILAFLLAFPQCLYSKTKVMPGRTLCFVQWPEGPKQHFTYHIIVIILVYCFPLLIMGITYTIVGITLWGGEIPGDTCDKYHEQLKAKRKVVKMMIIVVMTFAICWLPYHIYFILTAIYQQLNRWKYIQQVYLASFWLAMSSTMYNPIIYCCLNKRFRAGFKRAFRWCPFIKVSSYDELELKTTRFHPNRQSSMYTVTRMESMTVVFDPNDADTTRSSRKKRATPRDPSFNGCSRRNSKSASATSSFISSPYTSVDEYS
# [2] = in vitro
# Description: P value were calculated with two-way ANOVA. Source data are provided as a Source Data file.
# At indicated time point, 1 µl of HALT protease inhibitor was immediately added, and plasma was boiled and prepared using the peptidomics workflow described above. […] Half-lives were calculated using an exponential decay fit.
# [3] = system: diet-induced obese male mice; assay: 3-day food intake and body weight under daily dosing; assay type: in vivo, mouse; details: for Food Intake: 50 mg/kg
# Description: (§1) Fig. 5 Functional studies of […] in feeding and energy balance in mice. a Schematic of the primary amino acid sequence for full-length mouse GDF15 preproprotein and annotation of CAP-GDF15 sequence as well as the canonical GDF15 hormone sequence. b–d Food intake (b), respiratory exchange ratio (RER, c), and ambulatory activity (d) of 12–16-week diet-induced obese male mice following a single treatment of CAP-GDF15 (50 mg/kg, intraperitoneal) or vehicle control. e–g Food intake (e), RER (f), and ambulatory activity (g) of 12–16-week diet-induced obese male mice following a single treatment of scrambled CAP-GDF15 (50 mg/kg, intraperitoneal, scrambled sequence: pGlu-[…]-NH2) or vehicle control. h, i 3-day food intake (h) and body weight (i) of 12–16-week diet-induced obese male mice following treatment with CAP-GDF15 or scrambled CAP-GDF15 (50 mg/kg/day, IP), or vehicle control. Data are shown as means ± SEM. b–d, N = 12 mice/group; for e, f N = 8 mice/group; for h N = 7 food cages for vehicle and CAP-GDF15 groups and N = 5 for the scrambled peptide group; for i N = 14 mice for the vehicle group, N = 13 for the CAP-GDF15 group, and N = 5 for the scrambled peptide group. b–i injection occurred at time T = 0 (5:00 pm) and data were collected for the following 16 hrs. For (b-i), p values were calculated by two-way ANOVA. Source data are provided as a Source Data file.
# Lastly, to determine whether the acute food intake suppressive effects of CAP-GDF15 would lead to long-term suppression of feeding and obesity, we administered CAP-GDF15 or scrambled CAP-GDF15 (50 mg/kg/day, IP), or vehicle control to diet-induced obese mice. Food intake and body weight were monitored over a three-day period. A durable suppression of food intake in CAP-GDF15-treated mice was over the three-day experiment (Vehicle, 7.3 ± 0.5 g/mouse; […], 4.1 ± 0.9 g/mouse/day, P < 0.05, Fig. 5h). Consequently, and as expected, an increasing reduction in body weight was also detected (Vehicle, +0.1 ± 0.3 g/mouse; CAP-GDF15, −1.9 ± 0.3 g/mouse, P < 0.001, Fig. 5i). Importantly, mice treated with the scrambled CAP-GDF15 peptide were indistinguishable in body weight or food intake from control mice (P > 0.05 versus vehicle-treated mice, Fig. 5h, i).
# (§2) Animal experiments were performed according to a procedure approved by the Stanford University Administrative Panel on Laboratory Animal Care. Mice were maintained in 12-h light-dark cycles at 22 °C and about 50% relative humidity and fed a standard irradiated rodent diet. Where indicated, a high-fat diet (D12492, Research Diets 60% kcal from fat) was used. Male C57BL/6 J (stock number 000664) and male C57BL/6 J DIO mice were purchased from the Jackson Laboratory (stock number 380050). For studies in high-fat diet-fed mice, peptides were dissolved in 18:1:1 (by volume) of saline:Kolliphor EL (Sigma Aldrich):DMSO and administered to mice by intraperitoneal injections at a volume of 10 µl/g at the indicated doses for the indicated times. For lipopolysacchardide injection, LPS (Sigma, #L2880-10MG) was dissolved in saline and administered to mice at a volume of 5 µl/g at indicated dose. For fasting, food was removed from mice for 16 h. For running, a six-lane Columbus Instruments animal treadmill (product 1055-SRM-D65) was used with following 1 h protocol: 10 min at 6 m/min, 50 min at 18 m/min, and increase every 2 min by 2 m/min for the last 10 minutes, all at 12° incline. For all treatment experiments, mice were mock injected with the vehicle for 3–5 days until body weights were stabilized. Heparin plasma was harvested by submandibular bleed. For all experiments, mice were randomly assigned to treatment groups. Experimenters were not blinded to groups.
# [4] = system: diet-induced obese male mice; assay: Metabolic chamber studies after a single dose (food intake, RER, movement, VO2, VCO2); assay type: in vivo, mouse; details: single dose 50 mg/kg intraperitoneal, diet-induced obese male mice, metabolic chambers
# Description: as §1, with “Data are shown as means ± SEM. b–d, N = 12 mice/group; for e, f N = 8 mice/group; for h N = 7 food cages for vehicle and CAP-GDF15 groups and N = 5 for the scrambled peptide group; for i N = 14 mice for the vehicle group, N = 13 for the CAP-GDF15 group, and N = 5 for the scrambled peptide group. b–i injection occurred at time T = 0 (5:00 pm) and data were collected for the following 16 hrs.” left out
# as §2
# For acute energy expenditure studies, food intake, RER, movement, VO2, and VCO2 were collected with CLAMS Oxymax Metabolic Cages. Mice were placed in individual metabolic cages for 24 hours prior to experiment. Mice were injected with either vehicle, 50 mg/kg CAP-GDF15, 50 mg/kg uncapped CAP-GDF15, or 50 mg/kg scrambled CAP-GDF15 at 5 pm at T = 0. […] All experiments were done with 3–5 month old DIO mice (Jackson, stock 380050), fed high-fat diet ad libitum.
# Supplementary Figure 5. Additional measurements from metabolic chambers of mice treated with CAP-GDF15. a CAP-GDF15 plasma concentration after administration of CAP-GDF15 (50 mg/kg, intraperitoneal) or vehicle control. b-c VO2 (b) and VCO2 (c) of 12-16-week diet-induced obese male mice following a single treatment of CAP-GDF15 (50 mg/kg, intraperitoneal) or vehicle control. d-e VO2 (d) and VCO2 (e) of 12-16-week diet-induced obese male mice following a single treatment of scrambled CAP-GDF15 (50 mg/kg, intraperitoneal, scrambled sequence: p[…]-NH2) or vehicle control. f Acute food intake of 12-16-week diet-induced obese male mice following a single treatment of CAP-GDF15 (50 mg/kg, intraperitoneal), uncapped CAP-GDF15 (50 mg/kg, intraperitoneal), or vehicle control. For (a), N=3/group; (b-c), N=12/group; for (d-e), N=8/group; for (f), N=5/group.
# For (a-f), injection occurred at time T=0 (5:00pm). Data are shown as means ± SEM. For (b-i), p values were calculated by two-way ANOVA. Source data are provided as a Source Data
# [5] = human, in vivo; cited from earlier work
# [6] = 50 mg/kg/day IP, diet-induced obese mice, N = 5, P > 0.05 versus vehicle
molecule,measurement,setting,value
CSCC[C@H](NC(=O)[C@H](CC(C)C)NC(=O)CNC(=O)[C@H](Cc1ccccc1)NC(=O)[C@H](Cc1ccccc1)NC(=O)[C@@H]1CCC(=O)N1)C(N)=O [CAP-TAC1] ([pGlu]FFGLM-NH2),Emax,[1],~20%
same,half-life at 10 µM,"[2]; mouse, plasma",17.1 min
same,"plasma stability t1/2, earlier manuscript version quoted in the rebuttal","[2]; mouse, plasma",14.4 min
CC(C)C[C@H](NC(=O)CNC(=O)[C@@H]1CCC(=O)N1)C(=O)N[C@@H](CCC(=O)O)C(=O)N[C@@H](C)C(=O)N[C@@H](CC(C)C)C(=O)N[C@@H](CCCNC(=N)N)C(=O)N[C@@H](C)C(=O)N[C@@H](CCCNC(=N)N)C(=O)N[C@@H](CC(C)C)C(=O)N[C@@H](CCCNC(=N)N)C(=O)N[C@H](C(N)=O)C(C)C [Scrambled Peptide] ([pGlu]GLEALRARLRV-NH2),Food Intake,"[3]; 24 h, individual animal 1",2.8 g
same,Food Intake,"[3]; 24 h, individual animal 2",2.6 g
same,Food Intake,"[3]; 24 h, individual animal 3",3.6 g
same,Food Intake,"[3]; 24 h, individual animal 4",3.6 g
same,Food Intake,"[3]; 24 h, individual animal 5",2.3 g
same,Food Intake,"[3]; 48 h, individual animal 1",6.2 g
same,Food Intake,"[3]; 48 h, individual animal 2",4.9 g
same,Food Intake,"[3]; 48 h, individual animal 3",7.3 g
same,Food Intake,"[3]; 48 h, individual animal 4",7.3 g
same,Food Intake,"[3]; 48 h, individual animal 5",4.2 g
same,Food Intake,"[3]; 72 h, individual animal 1",9.2 g
same,Food Intake,"[3]; 72 h, individual animal 2",7.4 g
same,Food Intake,"[3]; 72 h, individual animal 3",10.7 g
same,Food Intake,"[3]; 72 h, individual animal 4",10.9 g
same,Food Intake,"[3]; 72 h, individual animal 5",6.9 g
CSCC[C@H](NC(=O)[C@H](CC(C)C)NC(=O)CNC(=O)[C@H](Cc1ccccc1)NC(=O)[C@H](Cc1ccccc1)NC(=O)[C@H](CCC(N)=O)NC(=O)[C@H](CCC(N)=O)NC(=O)[C@@H]1CCCN1C(=O)[C@H](CCCCN)NC(=O)[C@@H]1CCCN1C(=O)[C@@H](N)CCCN=C(N)N)C(N)=O [Substance P],plasma stability t1/2,[2],8.5 min
same,half-life at 10 µM,"[2]; mouse, plasma",4.5 min
CC(C)C[C@H](NC(=O)CNC(=O)[C@@H]1CCC(=O)N1)C(=O)N[C@@H](CCC(=O)O)C(=O)N[C@@H](C)C(=O)N[C@@H](CC(C)C)C(=O)N[C@@H](CCCNC(=N)N)C(=O)N[C@@H](C)C(=O)N[C@@H](CCCNC(=N)N)C(=O)N[C@@H](CC(C)C)C(=O)N[C@@H](CCCNC(=N)N)C(=O)N[C@H](C(N)=O)C(C)C [scrambled CAP-GDF15] ([pGlu]GLEALRARLRV-NH2),"effect on acute food intake, in words",[4],completely ineffective
same,effect on respiratory exchange ratio (RER),[4],completely ineffective
same,"3-day body weight compared with control mice, in words",[3]; [6],indistinguishable
same,"3-day food intake compared with control mice, in words",[3]; [6],indistinguishable
QFFGLM-NH2 [Substance P (6-11)],half-life at 10 µM,"[2]; mouse, plasma",8.5 min
QLELRLRVAAGR [uncapped CAP-GDF15],"effect on acute food intake, in words",[4],significantly less efficacious
liraglutide,bioavailability,[5],55%
